ChEMBL document CHEMBL3745709, “Synthesis of novel ethyl 1-ethyl-6-fluoro-7-(fatty amido)-1,4-dihydro-4-oxoquinoline-3-carboxylate derivatives and their biological evaluation” (Bioorg Med Chem Lett, 2016)
pIC50: −log10 of the molar value. Values after ≈ are worked out from the molar mass of the structure shown.

Assays:
[1] = Antioxidant activity assessed as DPPH free radical scavenging activity; assay type: physicochemical
Pseudomonas aeruginosa = assay: Antibacterial activity against Pseudomonas aeruginosa MTCC 2453 assessed as inhibition zone after 24 hrs at 30 degC by well diffusion method; assay type: functional; details: MTCC 2453, 24 h
MCF7 = assay: Cytotoxicity against human MCF7 cells assessed as reduction in cell viability by MTT assay; assay type: functional, cell-based
Staphylococcus aureus [2] = assay: Antibacterial activity against Staphylococcus aureus MLS-16 MTCC 2940 assessed as inhibition zone after 24 hrs at 30 degC by well diffusion method; assay type: functional; details: MLS-16 MTCC 2940, 24 h
Bacillus subtilis [3] = assay: Antibacterial activity against Bacillus subtilis MTCC 121 assessed as inhibition zone after 24 hrs at 30 degC by well diffusion method; assay type: functional; details: MTCC 121, 24 h
Escherichia coli [4] = assay: Antibacterial activity against Escherichia coli MTCC 739 assessed as inhibition zone after 24 hrs at 30 degC by well diffusion method; assay type: functional; details: MTCC 739, 24 h
[5] = Cytotoxicity against human SKOV3 cells assessed as reduction in cell viability by MTT assay; assay type: functional, cell-based; details: SK-OV-3
Candida albicans [6] = assay: Antifungal activity against Candida albicans MTCC 3017 […] after 24 hrs at 30 degC by well diffusion method; assay type: functional; details: MTCC 3017, 24 h
A549 = assay: Cytotoxicity against human A549 cells assessed as reduction in cell viability by MTT assay; assay type: functional, cell-based
Raoultella planticola = assay: Antibacterial activity against Klebsiella planticola MTCC 530 assessed as inhibition zone after 24 hrs at 30 degC by well diffusion method; assay type: functional; details: MTCC 530, 24 h
Micrococcus luteus = assay: Antibacterial activity against Micrococcus luteus MTCC 2470 assessed as inhibition zone after 24 hrs at 30 degC by well diffusion method; assay type: functional; details: MTCC 2470, 24 h
[7] = Cytotoxicity against human DU145 cells assessed as reduction in cell viability by MTT assay; assay type: functional, cell-based; details: DU-145
Staphylococcus aureus [8] = assay: Antibacterial activity against Staphylococcus aureus MTCC 96 […] after 24 hrs at 30 degC by well diffusion method; assay type: functional; details: MTCC 96, 24 h
Staphylococcus aureus [9] = assay: Antibiofilm activity against Staphylococcus aureus MLS-16 MTCC 2940 after 24 hrs by crystal violet staining method; assay type: functional, organism-based; details: MLS-16 MTCC 2940, 24 h
Staphylococcus aureus [10] = assay: Antibiofilm activity against Staphylococcus aureus MTCC 96 after 24 hrs by crystal violet staining method; assay type: functional, organism-based; details: MTCC 96, 24 h
Staphylococcus aureus [11] = assay: Bactericidal activity against Staphylococcus aureus MLS-16 MTCC 2940 assessed as microbial killing after 24 hrs; assay type: functional; details: MLS-16 MTCC 2940, 24 h
Escherichia coli [12] = assay: Antibiofilm activity against Escherichia coli MTCC 739 after 24 hrs by crystal violet staining method; assay type: functional, organism-based; details: MTCC 739, 24 h
Bacillus subtilis [13] = assay: Antibiofilm activity against Bacillus subtilis MTCC 121 after 24 hrs by crystal violet staining method; assay type: functional, organism-based; details: MTCC 121, 24 h
Escherichia coli [14] = assay: Bactericidal activity against Escherichia coli MTCC 739 assessed as microbial killing after 24 hrs; assay type: functional; details: MTCC 739, 24 h
Staphylococcus aureus [15] = assay: Bactericidal activity against Staphylococcus aureus MTCC 96 assessed as microbial killing after 24 hrs; assay type: functional; details: MTCC 96, 24 h
Bacillus subtilis [16] = assay: Bactericidal activity against Bacillus subtilis MTCC 121 assessed as microbial killing after 24 hrs; assay type: functional; details: MTCC 121, 24 h
[17] = Cytotoxicity against human IMR90 cells assessed as reduction in cell viability by MTT assay; assay type: cell-based; details: IMR-90
Pichia sporocuriosa [18] = assay: Fungicidal activity against Issatchenkia hanoiensis MTCC 4755 assessed as microbial killing after 24 hrs; assay type: functional; details: MTCC 4755, 24 h
Candida albicans [19] = assay: Fungicidal activity against Candida albicans MTCC 227 assessed as microbial killing after 24 hrs; assay type: functional; details: MTCC 227, 24 h
Candida albicans [20] = assay: Antifungal activity against Candida albicans MTCC 227 assessed as inhibition zone after 24 hrs at 30 degC by well diffusion method; assay type: functional; details: MTCC 227, 24 h
[Candida] aaseri [21] = Antifungal activity against Candida aaseri MTCC 1962 assessed as inhibition zone after 24 hrs at 30 degC by well diffusion method; assay type: functional; details: Yamadazyma aaseri, MTCC 1962, 24 h
Candida albicans [22] = assay: Fungicidal activity against Candida albicans MTCC 4748 assessed as microbial killing after 24 hrs; assay type: functional; details: MTCC 4748, 24 h
[Candida] aaseri [23] = Fungicidal activity against Candida aaseri MTCC 1962 assessed as microbial killing after 24 hrs; assay type: functional; details: Yamadazyma aaseri, MTCC 1962, 24 h
Candida albicans [24] = assay: Antifungal activity against Candida albicans MTCC 3018 assessed as inhibition zone after 24 hrs at 30 degC by well diffusion method; assay type: functional; details: MTCC 3018, 24 h
Candida albicans [25] = assay: Antifungal activity against Candida albicans MTCC 854 assessed as inhibition zone after 24 hrs at 30 degC by well diffusion method; assay type: functional; details: MTCC 854, 24 h
Nakaseomyces glabratus [26] = assay: Antifungal activity against Candida glabrata MTCC 3019 assessed as inhibition zone after 24 hrs at 30 degC by well diffusion method; assay type: functional; details: MTCC 3019, 24 h
Candida albicans [27] = assay: Fungicidal activity against Candida albicans MTCC 7315 assessed as microbial killing after 24 hrs; assay type: functional; details: MTCC 7315, 24 h
Candida albicans [28] = assay: Fungicidal activity against Candida albicans MTCC 183 assessed as microbial killing after 24 hrs; assay type: functional; details: MTCC 183, 24 h
Candida parapsilosis [29] = assay: Antifungal activity against Candida parapsilosis MTCC 1744 assessed as inhibition zone after 24 hrs at 30 degC by well diffusion method; assay type: functional; details: Lodderomyces parapsilosis, MTCC 1744, 24 h
Candida parapsilosis [30] = assay: Fungicidal activity against Candida parapsilosis MTCC 1744 assessed as microbial killing after 24 hrs; assay type: functional; details: Lodderomyces parapsilosis, MTCC 1744, 24 h
Candida albicans [31] = assay: Antifungal activity against Candida albicans MTCC 3958 assessed as inhibition zone after 24 hrs at 30 degC by well diffusion method; assay type: functional; details: MTCC 3958, 24 h
Candida albicans [32] = assay: Antifungal activity against Candida albicans MTCC 4748 assessed as inhibition zone after 24 hrs at 30 degC by well diffusion method; assay type: functional; details: MTCC 4748, 24 h
Candida albicans [33] = assay: Fungicidal activity against Candida albicans MTCC 3018 assessed as microbial killing after 24 hrs; assay type: functional; details: MTCC 3018, 24 h
Nakaseomyces glabratus [34] = assay: Fungicidal activity against Candida glabrata MTCC 3019 assessed as microbial killing after 24 hrs; assay type: functional; details: MTCC 3019, 24 h
Candida albicans [35] = assay: Antifungal activity against Candida albicans MTCC 7315 assessed as inhibition zone after 24 hrs at 30 degC by well diffusion method; assay type: functional; details: MTCC 7315, 24 h
Candida albicans [36] = assay: Antifungal activity against Candida albicans MTCC 1637 assessed as inhibition zone after 24 hrs at 30 degC by well diffusion method; assay type: functional; details: MTCC 1637, 24 h
Pichia kudriavzevii [37] = assay: Antifungal activity against Candida krusei MTCC 3020 assessed as inhibition zone after 24 hrs at 30 degC by well diffusion method; assay type: functional; details: MTCC 3020, 24 h
Candida albicans [38] = assay: Fungicidal activity against Candida albicans MTCC 854 assessed as microbial killing after 24 hrs; assay type: functional; details: MTCC 854, 24 h
Candida albicans [39] = assay: Fungicidal activity against Candida albicans MTCC 3017 assessed as microbial killing after 24 hrs; assay type: functional; details: MTCC 3017, 24 h
Candida albicans [40] = assay: Antifungal activity against Candida albicans MTCC 183 assessed as inhibition zone after 24 hrs at 30 degC by well diffusion method; assay type: functional; details: MTCC 183, 24 h
Candida albicans [41] = assay: Fungicidal activity against Candida albicans MTCC 1637 assessed as microbial killing after 24 hrs; assay type: functional; details: MTCC 1637, 24 h
Pichia kudriavzevii [42] = assay: Fungicidal activity against Candida krusei MTCC 3020 assessed as microbial killing after 24 hrs; assay type: functional; details: MTCC 3020, 24 h
Pichia sporocuriosa [43] = assay: Antifungal activity against Issatchenkia hanoiensis MTCC 4755 assessed as inhibition zone after 24 hrs at 30 degC by well diffusion method; assay type: functional; details: MTCC 4755, 24 h
Candida albicans [44] = assay: Fungicidal activity against Candida albicans MTCC 3958 assessed as microbial killing after 24 hrs; assay type: functional; details: MTCC 3958, 24 h

CCCCCCCCCCCCCCCC(=O)Nc1cc2c(cc1F)c(=O)c(C(=O)OCC)cn2CC
EC50 [1]: Not Active
MIC (Pseudomonas aeruginosa): > 125 µg/mL
pIC50 (MCF7): 4.73
MIC (Staphylococcus aureus [2]): > 125 µg/mL
MIC (Bacillus subtilis [3]): > 125 µg/mL
MIC (Escherichia coli [4]): > 125 µg/mL
pIC50 [5]: 4.75
MIC (Candida albicans [6]): > 125 µg/mL
pIC50 (A549): 4.61
MIC (Raoultella planticola): > 125 µg/mL
MIC (Micrococcus luteus): > 125 µg/mL
pIC50 [7]: 4.60
MIC (Staphylococcus aureus [8]): > 125 µg/mL

Cc1c(C)c2c(c(C)c1O)CC[C@@](C)(CCC[C@H](C)CCC[C@H](C)CCCC(C)C)O2 [ALPHA-TOCOPHEROL]
EC50 [1]: 10.4 µg/mL (≈ 24.1 µM)

Cc1cc(C(C)(C)C)c(O)c(C(C)(C)C)c1 [BUTYLATED HYDROXYTOLUENE]
EC50 [1]: 28.5 µg/mL (≈ 129 µM)

O=C(O)c1cn(C2CC2)c2cc(N3CCNCC3)c(F)cc2c1=O [CIPROFLOXACIN]
MIC (Pseudomonas aeruginosa): 0.9 µg/mL (≈ 2.72 µM)
MIC (Staphylococcus aureus [2]): 0.9 µg/mL (≈ 2.72 µM)
MIC (Bacillus subtilis [3]): 0.9 µg/mL (≈ 2.72 µM)
MIC (Escherichia coli [4]): 0.9 µg/mL (≈ 2.72 µM)
IC50 (Staphylococcus aureus [9]): 0.4 µg/mL (≈ 1.21 µM)
IC50 (Staphylococcus aureus [10]): 0.6 µg/mL (≈ 1.81 µM)
MBC (Staphylococcus aureus [11]): 0.9 µg/mL (≈ 2.72 µM)
IC50 (Escherichia coli [12]): 0.5 µg/mL (≈ 1.51 µM)
IC50 (Bacillus subtilis [13]): 0.7 µg/mL (≈ 2.11 µM)
MBC (Escherichia coli [14]): 0.9 µg/mL (≈ 2.72 µM)
MBC (Staphylococcus aureus [15]): 0.9 µg/mL (≈ 2.72 µM)
MIC (Raoultella planticola): 0.9 µg/mL (≈ 2.72 µM)
MBC (Bacillus subtilis [16]): 1.9 µg/mL (≈ 5.73 µM)
MIC (Micrococcus luteus): 0.9 µg/mL (≈ 2.72 µM)
MIC (Staphylococcus aureus [8]): 0.9 µg/mL (≈ 2.72 µM)

COc1cccc2c1C(=O)c1c(O)c3c(c(O)c1C2=O)C[C@@](O)(C(=O)CO)C[C@@H]3O[C@H]1C[C@H](N)[C@H](O)[C@H](C)O1 [DOXORUBICIN]
pIC50 [5]: 6.15
pIC50 [17]: 4.67
pIC50 [7]: 6.15

Clc1ccc(COC(Cn2ccnc2)c2ccc(Cl)cc2Cl)c(Cl)c1 (stereo unspecified) [MICONAZOLE]
MFC (Pichia sporocuriosa [18]): 7.8 µg/mL (≈ 18.7 µM)
MFC (Candida albicans [19]): 15.6 µg/mL (≈ 37.5 µM)
MIC (Candida albicans [20]): 7.8 µg/mL (≈ 18.7 µM)
MIC ([Candida] aaseri [21]): 7.8 µg/mL (≈ 18.7 µM)
MFC (Candida albicans [22]): 7.8 µg/mL (≈ 18.7 µM)
MFC ([Candida] aaseri [23]): 7.8 µg/mL (≈ 18.7 µM)
MIC (Candida albicans [24]): 7.8 µg/mL (≈ 18.7 µM)
MIC (Candida albicans [6]): 7.8 µg/mL (≈ 18.7 µM)
MIC (Candida albicans [25]): 7.8 µg/mL (≈ 18.7 µM)
MIC (Nakaseomyces glabratus [26]): 7.8 µg/mL (≈ 18.7 µM)
MFC (Candida albicans [27]): 7.8 µg/mL (≈ 18.7 µM)
MFC (Candida albicans [28]): 7.8 µg/mL (≈ 18.7 µM)
MIC (Candida parapsilosis [29]): 7.8 µg/mL (≈ 18.7 µM)
MFC (Candida parapsilosis [30]): 7.8 µg/mL (≈ 18.7 µM)
MIC (Candida albicans [31]): 7.8 µg/mL (≈ 18.7 µM)
MIC (Candida albicans [32]): 7.8 µg/mL (≈ 18.7 µM)
MFC (Candida albicans [33]): 7.8 µg/mL (≈ 18.7 µM)
MFC (Nakaseomyces glabratus [34]): 15.6 µg/mL (≈ 37.5 µM)
MIC (Candida albicans [35]): 7.8 µg/mL (≈ 18.7 µM)
MIC (Candida albicans [36]): 7.8 µg/mL (≈ 18.7 µM)
MIC (Pichia kudriavzevii [37]): 7.8 µg/mL (≈ 18.7 µM)
MFC (Candida albicans [38]): 15.6 µg/mL (≈ 37.5 µM)
MFC (Candida albicans [39]): 7.8 µg/mL (≈ 18.7 µM)
MIC (Candida albicans [40]): 7.8 µg/mL (≈ 18.7 µM)
MFC (Candida albicans [41]): 15.6 µg/mL (≈ 37.5 µM)
MFC (Pichia kudriavzevii [42]): 7.8 µg/mL (≈ 18.7 µM)
MIC (Pichia sporocuriosa [43]): 7.8 µg/mL (≈ 18.7 µM)
MFC (Candida albicans [44]): 15.6 µg/mL (≈ 37.5 µM)
